Source: patent US20180071242A1, “SUBSTITUTED ACYLANILIDES AND METHODS OF USE THEREOF” (University of Tennessee Research Foundation, priority 2006, published 2018)
“Also recorded” adds a separate entry of the source. Read-outs that look alike come from different tables or passages of the source.

Columns and labels:
[1] = Metabolic stability measured in human liver microsomes; assay type: in vitro ADME; conditions: for microsomal CLint at 0.6 μM: human, pH 7.4, human liver microsomes
Procedure: Metabolic stability assays were performed in order to assess the in vitro half-life of the S-isomer of compound of formula (I) [S-(I)] when incubated with human liver microsomes. Intrinsic clearance values were extrapolated. Permeability of the compound across human, intestinal epithelial monolayers (Caco-2 cells) was assessed as a measure of intestinal permeability as well as an indicator of efflux potential. Caco-2 cells are often used as an early screening surrogate for oral bioavailability. Microsomal half-life can be converted to in vitro clearance values as a means to predict hepatic intrinsic clearance. Intrinsic clearance is defined as the functional ability of the liver to metabolize a drug or other compound.
S-(I) in this study was incubated at a final concentration of 0.6 μM. Microsome reactions were performed under either Phase I or “Phase I and II” conditions, where indicated. Compound stocks (10 mM ACN) were initially diluted to a concentration of 60 μM (in 60% ACN/H2O) resulting in a “working stock” solution of 100×. Human liver microsomes were utilized at a final concentration of […]. Duplicate wells were used for each time point (0, 6, 10, 30, and 60 minutes). Reactions were carried out at 37° C. in a shaking water bath, and the final concentration of solvent was kept constant at 0.6%. The final volume for each reaction was 600 μl, comprised of […] of 100 mM KPO4 buffer, (pH 7.4); 12.6 μl of HLM (from a 20 mg/ml stock); 6 μl of 100× “working stock” drug compound, and 126 μl of NRS “master mix” solution. At each time point, 100 μl of reaction was removed and added to a sample well containing 100 μl of ice-cold, 100% ACN (plus internal standards), to stop the reaction. The NRS “master mix” is a solution of glucose 6-phosphate dehydrogenase, NADP^+, MgCl2, and glucose 6-phosphate, prepared per manufacturer's instructions (BD Biosciences, Waltham, Mass.). Each […] stock of NRS “master mix” solution contains 3.8 ml H2O, 1.0 ml solution “A” (Cat. #461220), and 0.2 ml solution “B” (Cat. #461200). Human liver microsomes (lot #0610279, Xenotech Corp.) represented a pool of 60 donors.
Samples were centrifuged at 3,000 rpm for 10 minutes at 4° C. to remove debris and precipitated protein. […] The concentration of parent drug remaining in each well (expressed as percent remaining versus Time ‘0’, at the beginning of the reaction) was measured by LC/MS, as detailed below.
All samples were analyzed on the MDS/Sciex API4000 Q Trap system with electrospray ionization (ESI) in the positive or negative SIM mode, depending on the compounds. […] The percentage of parent drug compound remaining after each time point was determined relative to the initial measured concentration at the beginning of the reaction (T0 min). […]

[2] = test system: DMD (−/−) UTRN (+/+) mice; test: mdx mouse model of Duchenne muscular dystrophy
[3] = test system: intact male Sprague-Dawley rats; test: Anabolic and androgenic activity in intact male rats; assay type: in vivo, rat
Procedure: Anabolic and androgenic efficacy of compound of formula (I) administered by daily oral gavage were tested. The S-isomer of compound (I) [S-(I)] was synthesized and tested as described herein.
The test article for this study was weighed and dissolved in 10% DMSO (Fischer) diluted with PEG 300 (Acros Organics, NJ) for preparation of the appropriate dosage concentrations. The animals were housed in groups of 2 to 3 animals per cage. Animals were randomly assigned to one of seven groups consisting of 4 to 5 animals per group. Control groups (intact and ORX) were administered vehicle daily. S-(I) was administered via oral gavage at doses of 0.01, 0.03, 0.1, 0.3, 0.75, and 1 mg/day to both intact and ORX groups. Where appropriate, animals were castrated on day one of the study. […]
The animals were sacrificed under anesthesia (ketamine/xyalzine, 87:13 mg/kg) and body weights were recorded. In addition, ventral prostate, seminal vesicles, and levator ani muscle were removed, individually weighed, normalized to body weight, and expressed as a percentage of intact control. […] Ventral prostate and seminal vesicle weights were evaluated as a measure of androgenic activity, whereas levator ani muscle weight was evaluated as a measure of anabolic activity. […] Serum luteinizing hormone (LH) and follicle stimulating hormone (FSH) concentrations were determined.

[4] = target: T1, Recombinant androgen receptor ligand binding domain (AR LBD) (Homo sapiens, UniProt P10275); test: In vitro competitive radioligand binding assay with [3H]mibolerone
T1 sequence (P10275 669-900 limits assumed): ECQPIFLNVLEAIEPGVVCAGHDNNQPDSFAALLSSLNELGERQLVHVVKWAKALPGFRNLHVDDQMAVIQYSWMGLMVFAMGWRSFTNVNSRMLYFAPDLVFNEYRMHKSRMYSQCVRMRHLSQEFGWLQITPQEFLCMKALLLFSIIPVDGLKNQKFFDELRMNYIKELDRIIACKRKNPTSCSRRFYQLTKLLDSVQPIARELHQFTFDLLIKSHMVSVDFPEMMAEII
Procedure: Following incubation, plates were harvested with GF/B filters on the Unifilter-96 Harvester (PerkinElmer) and washed three times with ice-cold buffer B (60 mM Tris, pH 7.2). The filter plates were dried at RT, then 36 μl Microscint-O® cocktail was added to each well and sealed with TopSeal-A®. The receptor bound radioligand was then determined with the TopCount® NXT Microplate Scintillation Counter (PerkinElmer).
The equilibrium binding constant (Ki) of each compound was then determined with the following equation:

Pharmacokinetics in dogs = assay type: in vivo; conditions: beagle dogs
Procedure: In order to determine the pharmacokinetics of the S-isomer of the compound of formula (I) [S-(I)], the compound was administered to beagle dogs perorally, and circulating plasma levels, terminal elimination half-life (t1/2), total body clearance (CL), terminal volume distribution (Vz) and absolute bioavailability (F %) (Table 4) were determined.

[5] = castrated mdx mice, 10 mg/kg/day subcutaneously, 12 weeks
[6] = castrated mdx mice, 10 mg/kg/day subcutaneously, 12 weeks, 10 mg/kg/day

In the case of `C[C@](O)(COc1ccc(C#N)cc1)C(=O)Nc1ccc(C#N)c(Cl)c1` [S-(I), (S)—N-(3-chloro-4-cyanophenyl)-3-(4-cyanophenoxy)-2-hydroxy-2-methylpropanamide], the “Half Life (minutes) Phase I only” value ([1]; Phase I only) is reported as “Stable”, the microsomal CLint at 0.6 μM ([1]; Phase I + II, read-out: CLint (μl/min/mg) Phase I + II) is reported as 2 µL/min/mg and the microsomal CLint at 0.6 μM ([1]; Phase I only, read-out: CLint (μl/min/mg) Phase I only) is reported as under 1 µL/min/mg. For the same compound, the half-life at 0.6 μM ([1]; pH 7.4, Phase I + II) was 5.81 h, the “Fat mass (in words)” value [2, 5] was “decrease” and the “Grip strength (in words)” value [2, 5] was “significant increase”. The “Body weight (in words)” value [2, 6] was “increased; also recorded: significant increase”, the “Lean [muscle] mass (in words)” value [2, 6] was “increased; also recorded: significant increase” and the “Body weight (in words)” value ([2]; intact mdx mice) was “increased”. The “Lean mass (in words)” value ([2]; intact mdx mice) was “increased”, the “Seminal vesicles weight (in words)” value [3] was “decreases” and the Ki [4] was 36.9 nM. The “Absorption (in words)” value (Pharmacokinetics in dogs; perorally) was “rapidly and completely absorbed”, the bioavailability (Pharmacokinetics in dogs; dog, plasma, oral, perorally, read-out: F%, absolute bioavailability) was 96.2% and the clearance (Pharmacokinetics in dogs; dog, plasma, oral, read-out: CL, total body clearance) was 1.68 ± 0.13 mL/min/kg. The Vd (Pharmacokinetics in dogs; dog, plasma, oral, read-out: Vz, terminal volume distribution) was 1.52 ± 0.142 L/kg and the half-life (Pharmacokinetics in dogs; dog, plasma, oral, read-out: t½, terminal elimination half-life (converted)) was 10.4 ± 0.5 h.
